Laboratory results reported in patent US9510598B2, “Nitrogen-containing heterocyclic compounds for plant disease control” (BAYER CROPSCIENCE AG, priority 2012, dated 2016).
Like-named read-outs stand apart in the source and are kept apart here.

Key:
[1] = type: physicochemical
Septoria tritici = experiment: In vivo preventive test on Septoria tritici (leaf spot on wheat); settings: 500 ppm; wheat plants sprayed 24 hours before contamination; grading 21 to 28 days after contamination vs control plants
Experimental: Wheat plants (“Scipion” variety), sown in starter cups on a 50/50 peat soil-pozzolana substrate and grown at 22° C. (12 h)/20° C. (12 h), are treated at the 1-leaf stage (10 cm height) by spraying with the active ingredient prepared as described above. Plants, used as controls, are treated with the mixture of acetone/tween/DMSO/water not containing the active material. After 24 hours, the plants are contaminated by spraying the leaves with an aqueous suspension of cryopreserved Septoria tritici spores (500 000 spores per ml). […] Grading (% of efficacy) is carried out 21 to 28 days after the contamination, in comparison with the control plants.

[2] = HPLC on reversed phase columns, method [a]: pH 2.7, 0.1% formic acid in water / acetonitrile, linear gradient 10% to 95% acetonitrile
[3] = method [a]: HPLC/LC-MS on reversed phase at pH 2.7, 0.1% formic acid in water / acetonitrile, gradient 10% to 95% acetonitrile
[4] = method [a]: HPLC/LC-MS on reversed phase at pH 2.7, 0.1% formic acid in water / acetonitrile, linear gradient 10% to 95% acetonitrile

Row | Compound | log P [1, 2] | % of efficacy (protection) (Septoria tritici) [%] | log P [1, 3] | Log P ([1]; method [a]: HPLC/LC-MS on reversed phase at pH 2.7, 0.1% formic acid in water and acetonitrile, linear gradient 10% to 95% acetonitrile) | log P [1, 4]
1 | C#CCCNC(=O)C1(C)CC(c2ccc3ncc(C#C)cc3c2)=NO1 (racemic) [compound 355] | 2.25[a] | 100 |  |  | 
2 | C#Cc1cnc2ccc(C3=NOC(C)(C(=O)NCC(OC)OC)C3)cc2c1 (racemic) [compound 366] |  | 100 | 2.13[a] |  | 
3 | CC(C)NC(=O)C1ON=C(c2ccc3ncc(Br)cc3c2)C1C (racemic) [compound 376] |  | 86 | 2.64[a] |  | 
4 | CC#Cc1cnc2ccc(C3=NOC(C)(C(=O)NCc4cn(CC)nc4C)C3)cc2c1 (racemic) [compound 378] |  | 97 | 2.35[a] |  | 
5 | CC(C)ONC(=O)C1(C)CC(c2ccc3ncc(Br)cc3c2)=NO1 (racemic) [compound 388] |  | 100 | 2.44[a] |  | 
6 | CCONC(=O)C1(C)CC(c2ccc3ncc(Br)cc3c2)=NO1 (racemic) [compound 389] |  | 100 | 2.17[a] |  | 
7 | CC1(C(=O)NC2CCCC2)CC(c2ccc3ncc(Br)cc3c2)=NO1 (racemic) [compound 390] |  | 98 | 3.29[a] |  | 
8 | CC(C)NC(=O)C12CC1C(c1ccc3ncc(Br)cc3c1)=NO2 (racemic) [compound 397] |  | 75 | 2.82[a] |  | 
9 | C#Cc1cnc2ccc(C3=NOC(C)(C(=S)NCc4cnn(C)c4C)C3)cc2c1 (racemic) [compound 443] |  | 88 | 2.76[a] |  | 
10 | COC1(C(=O)NC(C)C)CC(c2ccc3ncc(Br)cc3c2)=NO1 (single isomer, unassigned) [compound 285] | 2.57[a] | 100 |  |  | 
11 | Cc1cc(NC(=O)C2(C)CC(c3cc4cc(Br)cnc4c(F)c3F)=NO2)n(C)n1 (stereo not shown) [compound 18] |  | 93 |  | 2.6^[a] | 
12 | CCC(C)NC(=O)C1(C)CC(c2cc3cc(Br)cnc3c(OC)c2OC)=NO1 (stereo not shown) [compound 28] |  | 100 |  |  | 3.21^[a]
13 | CCn1cc(CNC(=O)C2(C)CC(c3cc4cc(Br)cnc4c(F)c3OC)=NO2)c(C)n1 (stereo not shown) [compound 29] |  | 100 |  |  | 2.47^[a]
14 | CCn1cc(CNC(=O)C2(C)CC(c3cc4cc(Br)cnc4c(OC)c3OC)=NO2)c(C)n1 (stereo not shown) [compound 30] |  | 100 |  |  | 2.42^[a]
15 | CCn1cc(CNC(=O)C2(C)CC(c3ccc4ncc(Cl)cc4c3)=NO2)c(C)n1 (stereo not shown) [compound 54] |  | 100 |  |  | 2.28^[a]
16 | CCn1cc(CNC(=O)C2(Cc3ccccc3)CC(c3ccc4ncc(Br)cc4c3)=NO2)c(C)n1 (stereo not shown) [compound 56] |  | 70 |  |  | 3.23^[a]
17 | CCOCCCNC(=O)C1(Cc2ccccc2)CC(c2ccc3ncc(Br)cc3c2)=NO1 (stereo not shown) [compound 59] |  | 70 |  |  | 3.8^[a]
18 | CCn1cc(CNC(=O)C2(C(C)C)CC(c3ccc4ncc(Br)cc4c3)=NO2)c(C)n1 (stereo not shown) [compound 61] |  | 80 |  |  | 2.94^[a]
19 | CC(C)NC(=O)C1(CF)CC(c2ccc3ncc(Br)cc3c2)=NO1 (stereo not shown) [compound 76] |  | 75 |  |  | 2.46^[a]
20 | C#Cc1cnc2ccc(C3=NOC(C)(C(=O)NCc4ccc(-c5csnn5)cc4)C3)cc2c1 (stereo not shown) [compound 86] |  | 75 |  |  | 2.82^[a]
